Data published in US7737180B2, “Use of neboglamine (CR 2249) as an antipsychotic and neuroprotective” (Rottapharm S.p.A., priority 2004, dated 2010).
Marks after values point to notes of the source that are not given here.

Columns and labels:
[1] = system: PCP-induced depression (swimming test); assay: Reversion of PCP-induced depression in the mouse swimming test; format: in vivo
From the text: An animal model of depression (which may be considered as a negative symptom of schizophrenia) was then used to study the activity of neboglamine on the PCP-induced depressive effects in the mouse using the swimming test according to Porsolt et al. [Arch. Int. Pharmadyn. 229, 327-336 (1977)].
The test involves inducing a state of depression in the animal, which is forced to swim in a glass cylinder from which it cannot escape. The state of depression was accentuated by 14 days' pre-treatment with a daily 10 mg/kg (s.c.) injection of PCP. On the 15th day, the animals were additionally pretreated (i.p.) with physiological solution or neboglamine 30 minutes before the beginning of the test. The duration of immobility (sign of depression) in seconds was evaluated during the experiment of an overall duration of 360 seconds. The results obtained in this manner, calculated between the 3rd and 6th minute of the experiment, i.e. for a period of […], are shown in Table 2.

[2] = system: PCP-induced inhibition of the acoustic prestimulus (PPI); assay: Reversion of PCP-induced inhibition of the acoustic prestimulus (PPI) in the rat; format: in vivo
From the text: The first model used was the study of PCP-induced inhibition of the acoustic prestimulus (PPI) in the rat.
This phenomenon is known as “pre-pulse inhibition” (PPI). […] Such a deficit may be reproduced experimentally with drugs which induce psychotic phenomena, such dopamine agonists and NMDA antagonists.
The method is based on that reported by Swerdlow et al. [J. Pharmacol. Exp. Ther. 256 530-536 (1991)] with slight modifications. An acrylic cylinder is used which is equipped with a piezoelectric sensor mounted under the cylinder which detects and transduces movements of the cylinder. A background noise of 60 dB is provided and subsequently two acoustic stimuli separated by 500 ms, the first of which is 20 dB above the background noise, while the second (startle stimulus) is 120 dB for a duration of 40 ms. The session of 30 trials at 30 second intervals with an overall duration of approx. 15 minutes involved subjecting the animal randomly to a startle stimulus either isolated or preceded by the low intensity stimulus. PPI was calculated as a percentage reduction in the level of startle in the presence of the prestimulus compared to that without the acoustic prestimulus. Rats weighing approx. 250 g were used, which were treated intraperitoneally (i.p.) with the products under investigation 15 minutes prior to subcutaneous (s.c.) administration of 3 mg/kg of PCP and 30 minutes before the beginning of the experiment.

[3] = system: NMDA-evoked 3H-dopamine release in slices of rat prefrontal cortex; assay: PCP-induced blocking of NMDA-evoked 3H-dopamine release in slices of rat frontal cortex; format: cell-based
Experimental: Neboglamine's ability to reverse the effect of PCP at a neuronal level was also evaluated in an in vitro test carried out on slices of rat frontal cortex.
The method involved preparing 0.4 mm thick cortical slices, incubating them for 20 minutes with ^3H-dopamine in physiological solution in the presence of 0.1 μM 6-nitroquipazine and 0.1 μM nisoxetine (selective serotonin and noradrenaline reuptake inhibitors), aerated with 95% O2+5% CO2 at 37° C., which, after appropriate washing with artificial cerebrospinal fluid (aCSF), were superperfused for 30 minutes with aCFS at a rate of 1 ml/minute to equilibrate the system. Then, PCP and neboglamine were added at the stated concentrations to the perfusion liquid for the entire duration of the experiment, while, after 45 minutes, NMDA (100 μM) stimulation was provided for 5 minutes. Another four 5 minute fractions of eluate were then collected and their radioactivity determined.
The effect of the drugs was evaluated by calculating the ratio between the percentage radioactivity present in the effluent fraction corresponding to the maximum effect and that in the first effluent fraction collected.

[4] = system: hippocampal ischaemia by bilateral occlusion of the carotid arteries; assay: Ischaemia induced in the gerbil by bilateral occlusion of the carotid arteries (hippocampal neuroprotection); format: in vivo; conditions: for area (mm2): mean ± SD; for % mortality: ischaemia group 28.57
Experimental: It was accordingly decided to investigate the possible neuroprotective effects of neboglamine and CR 2863 on a model of hippocampal ischaemia brought about in the gerbil by bilateral occlusion of the carotid arteries.
In brief, halothane-anaesthetised animals are subjected to bilateral occlusion of the carotid arteries for 5 minutes. After 7 days, the animals are sacrificed, the brain is removed, deep frozen and 10 μm sections from the hippocampal area are prepared which are stained with cresyl violet. A quantitative determination (in mm^2) of the area occupied by […] pyramidal neurons is then performed by means of an image analyser. The type of hippocampal neurodegeneration arising from this model of ischaemia involves a significant reduction in the area of the neuronal nuclei. The drugs were administered intraperitoneally (i.p.) 1 h before the ischaemia.

c1ccc(C2(N3CCCCC3)CCCCC2)cc1 [PCP, Phenylcyclidine]
increase of duration of immobility relative to untreated control group ([1]; 2 weeks' chronic PCP): approx. 3 times
Immobility ([1]; PCP only group, 14 days 10 mg/kg s.c. daily, control 48): 130 s
PPI (% inhibition) ([2]; rat, PCP only group, 3 mg/kg s.c., control 55%): 20%
% increase in NMDA-evoked 3H-dopamine release ([3]; NMDA 100 μM + PCP 0.1 μM): 64%

CN[C@H](CC(=O)O)C(=O)O [NMDA]
% increase in NMDA-evoked 3H-dopamine release ([3]; Control: NMDA 100 μM alone): 120%

CC1(C)CCC(N)CC1 [CR 2863, 4,4-dimethylcyclohexylamine]
times less active than the parent (neboglamine) ([2]; rat PPI model): approx. 3 times
PPI (% inhibition) ([2]; rat, drug 10 mg/kg i.p. 15 min before PCP 3 mg/kg s.c., n=10): 38* %
% inhibition by PCP ([2]; rat, drug 10 mg/kg i.p. + PCP, calculated by formula): 51.4%
% protection ([4]; 4 mg/kg i.p.): 24.88%
area (mm2) ([4]; 4 mg/kg i.p. 1 h before ischaemia, sham 22.39, ischaemia 5.55): 9.74 ± 0.9*^+ mm2
% mortality ([4]; 4 mg/kg i.p.): 11.11%
% protection ([4]; 8 mg/kg i.p.): 39.25%
area (mm2) ([4]; 8 mg/kg i.p. 1 h before ischaemia): 12.16 ± 5.49 mm2
% mortality ([4]; 8 mg/kg i.p.): 5.88%
% protection ([4]; 16 mg/kg i.p.): 57.82%
area (mm2) ([4]; 16 mg/kg i.p. 1 h before ischaemia): 15.23 ± 5.49*^+ mm2
